Tests used:
[1] = biological target: T1, IDO1 (Homo sapiens, UniProt P14902); assay: biochemical; settings: for mode of inhibition: L-tryptophan 7.5 μM to 30 μM, Fig. 4
[2] = biological target: human IDO1 in HEK 293 cells (Homo sapiens, UniProt P14902); assay: Cell-based assay of IDO1 activity; settings: for inhibition of the cellular activity of IDO1: HEK 293 cells overexpressing human IDO1, kynurenine released, Fig. 2c
[3] = biological target: human TDO2 in HEK 293 cells (Homo sapiens, UniProt P48775); assay: Cell-based assay of TDO2 activity
[4] = biological target: recombinant human IDO1 (rhIDO1) (Homo sapiens, UniProt P14902); assay: Enzymatic assay of IDO1; format: biochemical
Chain of recombinant human IDO1 (rhIDO1) (P14902 whole entry): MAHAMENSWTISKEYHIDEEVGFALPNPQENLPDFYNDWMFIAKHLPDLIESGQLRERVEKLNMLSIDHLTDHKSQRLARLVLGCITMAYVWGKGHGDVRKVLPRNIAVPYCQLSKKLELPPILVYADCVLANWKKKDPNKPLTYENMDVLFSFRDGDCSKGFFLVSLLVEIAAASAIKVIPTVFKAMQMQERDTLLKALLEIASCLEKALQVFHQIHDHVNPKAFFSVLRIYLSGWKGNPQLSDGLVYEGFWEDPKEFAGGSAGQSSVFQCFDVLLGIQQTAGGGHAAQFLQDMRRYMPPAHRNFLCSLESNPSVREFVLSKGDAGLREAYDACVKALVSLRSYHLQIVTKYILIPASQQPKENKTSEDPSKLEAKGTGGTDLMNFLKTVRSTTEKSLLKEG

[5] = tested on: HEK 293 cells; assay: Cell viability assay; format: cell-based, human; settings: conditions used for the kynurenine assay
[6] = biological target: T1, IDO1; assay: IDO1 absorbance spectra; format: binding; settings: compound 20 μM, rhIDO1 3 μM; for absorbance of ferric-IDO1 at 404 nm: compared with control; for absorbance of ferrous-IDO1 at 428 nm: sodium dithionite
[7] = biological target: rhTDO2 (purified TDO2 enzyme) (Homo sapiens, UniProt P48775); assay: Enzymatic assay of TDO2; format: biochemical

T1 sequence (P14902 whole entry): as above
Chain of human IDO1 in HEK 293 cells (P14902 whole entry): as above

| inhibition at 20 µM ([4]; read-out: IDO1 inhibitory activity of tanshinone derivatives) [%] | Compound | Ki [1] [µM] | mode of inhibition [1] | IC50 [2] [µM] | inhibition of the cellular activity of IDO1 [2] [%] | IC50 [3] [µM] | IC50 [4] [µM] | effect on cell viability (CCK8) [5] | absorbance of ferric-IDO1 at 404 nm [6] | absorbance of ferrous-IDO1 at 428 nm [6] | IC50 [7] [µM] |
| --- | --- | --- | --- | --- | --- | --- | --- | --- | --- | --- | --- |
| – | CC(C)=CC[C@@H](O)C1=CC(=O)c2c(O)ccc(O)c2C1=O [Compound 7, shikonin] | 1.4 | uncompetitive inhibition | 2.2 | 101.8 | 1.4 | 0.98 | slightly reduced cell viability | decreased | remained unchanged | 5.05 |
| – | Cc1cccc2c3c(ccc12)C1=C(C(=O)C3=O)[C@@H](C)CO1 [Compound 8, dihydrotanshinone I] | 2.8 | uncompetitive inhibition | 25.7 | 83.6 | 13.3 | 2.8 | no effect on cell viability | decreased | remained unchanged | 5.1 |
| > 40 | C[C@H]1COC2=C1C(=O)C(=O)c1c2ccc2c1CCCC2(C)C [Compound B06F5, cryptotanshinone] | – | – | – | – | – | – | – | – | – | – |
